Series [1] concerns subjects with schizophrenia who have predominant negative symptoms. Kind of series: Phase 2, 26-week adjunctive pimavanserin study: safety. Type of series: in vivo, human. To be noted: 26-week study. On the procedure: This study is conducted as a Phase 2, 26-week, randomized, double-blind, placebo-controlled, multicenter, multinational outpatient study in subjects with schizophrenia who have predominant negative symptoms while on adequate treatment with an antipsychotic. Schizophrenia is defined by the Diagnostic and Statistical Manual of Mental Disorders, Fifth Edition (DSM-5), confirmed by a customized module of the Structured Clinical Interview for DSM-5, Clinical Trials Version (SCID-5-CT). This study enrolls approximately 403 subjects with predominant negative symptoms of schizophrenia. In the study, patients were randomized to receive either pimavanserin or placebo added to their current background antipsychotic treatment for 26 weeks in duration. At baseline all patients were started on a daily dose of 20 mg of pimavanserin or placebo with dose adjustments allowed up to 34 mg or down to 10 mg during the first eight weeks of treatment. […]
Safety will be evaluated by analyses of adverse events, vital signs, ECGs, physical examination results, and clinical laboratory tests (including urinalysis), and the Abnormal Involuntary Movement Scale (AIMS), the Barnes Akathisia Rating Scale (BARS), the Simpson-Angus Extrapyramidal Side Effects Scale (SAS), and the Columbia Suicide Severity Rating Scale (C-SSRS).

For series [2], the system named is scPCP+ARS(2h) treated male C57BL/6J mice. Kind of series: 10-min social interaction test in scPCP-treated mice given 2 h acute restraint stress (treatment-resistant model). Type of series: in vivo. To be noted: risperidone 0.2, olanzapine 1, aripiprazole 1 or pimavanserin 3 mg/kg ip alone, 45 min prior to test. On the procedure: (§1) Briefly, mice were habituated to the test arena (i.e., the NOR box) for 30 minutes prior to the test day. Pairs of mice, unfamiliar to each other, received either the same treatment (e.g., vehicle and vehicle; N=10 pairs) or different treatments (e.g., vehicle; N=10 and phencyclidine (PCP) 10 mg/kg; N=10). After washout, they were placed in the test arena together for 10 minutes. A heavy object made of Plexiglas or metal was placed in the center of the test arena to quantify the time and nature of interaction of the test animals with an unfamiliar object or an unfamiliar animal. After the 10 min test phase, the object and the arena were cleaned with 70% ethanol to remove any olfactory trails. Behavior was recorded on video for subsequent blind scoring.
(§2) The following four behaviors were scored for each animal: • a) Sniffing: A normal mouse engages in sniffing the con-specific mouse's body, including the anogenital area • b) Following: A normal mouse pursues a con-specific mouse around the arena • c) Avoiding: A normal mouse avoids the con-specific mouse and move away from a pursuing mouse if approached • d) Object Exploration: A normal mouse explores the object that is placed in the center of the test arena.
Acute restraint stress (ARS) protocol: Mice were assigned to one of two groups: either the control group (non-stress) or the stress group. Generally, mice of the stress group were restrained in well-ventilated 50 mL tubes. After the restraint period of 1 or 2 hours, the mice were transferred into a clean animal housing cage for 1-hour interval and thereafter went through the first social interaction test (different mice are used to test different groups).
Treatment resistant animal model: To establish this model, Acute restraint stress (ARS) was added to scPCP treatment. Two groups (vehicle+ARS; scPCP+ARS) and their controls (vehicle+saline; scPCP+saline) were used. ARS was applied for 1 or 2 hours and tested on SI 1 hour post-ARS.
The behavioral assay, ARS protocol, and scPCP-treatment as described in Example 2 were used. To test the effect of atypical APD and pimavanserin, alone or as con-administration, in scPCP-treated mice (N=10 pairs of mice per group) given 2 h ARS, risperidone (“Risp”) was administered as 0.2 mg/kg or 0.4 mg/kg ip; olanzapine (“Olan”) as 1.0 mg/kg ip; aripiprazole (“Aripi”) as 1.0 mg/kg ip; and pimavanserin (“Pim”) as 3 mg/kg ip to scPCP+ARS(2h) treated male C57BL/6J mice 45 minutes prior to the commencement of the social interaction task in the 10 min social interaction test. Plasma levels of risperidone were measured using a Triple Quad 6500+ mass spectrometer.

In series [3] the test system is subjects with schizophrenia who have predominant negative symptoms. Description: Phase 2, 26-week placebo-controlled study of adjunctive pimavanserin for negative symptoms of schizophrenia: efficacy. Particulars: for NSA-16 total score vs placebo, effect size: Week 26; for NSA-16 total score, change from Baseline to Week 26: placebo −8.5. Type of series: in vivo, human. On the procedure:
This study is conducted as a Phase 2, 26-week, randomized, double-blind, placebo-controlled, multicenter, multinational outpatient study in subjects with schizophrenia who have predominant negative symptoms while on adequate treatment with an antipsychotic. Schizophrenia is defined by the Diagnostic and Statistical Manual of Mental Disorders, Fifth Edition (DSM-5), confirmed by a customized module of the Structured Clinical Interview for DSM-5, Clinical Trials Version (SCID-5-CT). This study enrolls approximately 403 subjects with predominant negative symptoms of schizophrenia. In the study, patients were randomized to receive either pimavanserin or placebo added to their current background antipsychotic treatment for 26 weeks in duration. At baseline all patients were started on a daily dose of 20 mg of pimavanserin or placebo with dose adjustments allowed up to 34 mg or down to 10 mg during the first eight weeks of treatment. Following week eight no further dose modifications were allowed for the remaining 18 weeks in the study.
The daily dose of the main antipsychotic must remain stable and may not be changed from Screening through the duration of the study. […] At the Weeks 2, 4, and 8 visits, the daily dose of pimavanserin may remain at 20 mg or it may be either increased to 34 mg (for symptom improvement) or decreased to 10 mg daily (if the 20 mg dose is not well tolerated). After the Week 8 visit, no study drug dose changes may be made. Clinic visits occurring after Baseline will be conducted at Weeks 2, 4, 8, 14, 20, and 26 (End-of-Study [EOS]/Early Termination [ET] visit).
The test products are pimavanserin 10 mg and 17 mg tablets or matching placebo. Daily doses of pimavanserin to be studied are 10 mg (provided as 1×10 mg pimavanserin tablet and 1× matching placebo); 20 mg (2×10 mg pimavanserin tablets); or 34 mg (2×17 mg pimavanserin tablets); or matching placebo (2× placebo tablets); delivered by mouth. Seventeen (17) mg of the active moiety is dosed as 20 mg of the salt pimavanserin tartrate; 10 mg of the active moiety is dosed as 11.8 mg of the salt pimavanserin tartrate. The duration of participation for individual subjects will be up to approximately 34 weeks.
Primary Efficacy Endpoint is the change from Baseline to Week 26 in the Negative Symptom Assessment-16 (NSA-16) total score.
Secondary Endpoints Key Secondary Endpoint is the change from Baseline to Week 26 in the Personal and Social Performance Scale (PSP) score.

The subject of series [4] is scPCP-treated C57BL/6J mice. Description: 10-min social interaction test in scPCP-treated mice. Type of series: in vivo. To be noted: pimavanserin 3 and 6 mg/kg ip, alone. On the procedure: Negative symptoms model: The behavioral assay utilized to assess negative symptoms was social interaction (SI) task.
as §1, §2
scPCP treatment involved intraperitoneal injection (ip) of 10 mg/kg PCP to male C57BL/6J mice, twice daily (bid) for 7 days, followed by 7 days washout. To test the effect of atypical APD or pimavanserin in scPCP-treated mice (N=10 pairs of mice per group), risperidone was administered as 0.05 mg/kg ip or 0.2 mg/kg ip; and pimavanserin was administered as 3 mg/kg ip or 6 mg/kg ip to scPCP-treated mice 45 minutes prior to the commencement of the social interaction task in the 10 min social interaction test.

Here are results for 1 molecule from patent US20220288048A1, “PIMAVANSERIN FOR TREATING SCHIZOPHRENIA OR FOR TREATING PSYCHOSIS SECONDARY TO NEURODEGENERATIVE DISORDERS OR DEPRESSIVE DISORDER” (ACADIA Pharmaceuticals Inc., priority 2019, published 2022).

The structures appear in SMILES notation. “Also recorded” adds a separate entry of the source.

Regarding `CC(C)COc1ccc(CNC(=O)N(Cc2ccc(F)cc2)C2CCN(C)CC2)cc1` [Pimavanserin, N-(4-Fluorophenylmethyl)-N-(1-methylpiperidin-4-yl)-N′-(4-(2-methylpropyloxy)phenylmethyl)carbamide], the “Vital signs, weight, metabolic syndrome, and extrapyramidal symptoms compared to adjunctive placebo” value in series [1] is “did not result in clinically significant differences”. Moreover, the “Rate of adverse events” value in series [1] (adjunctive pimavanserin) is 40%. Further, the “Able to restore sniffing or decrease avoidance (SI deficit), drug alone” value in series [2] is reported as “Neither; also recorded: ineffective”. Moreover, the entries for the “NSA-16 total score vs placebo, effect size” value in series [3] (34 mg dose) and in series [3] (all pimavanserin doses) were 0.34 and 0.21, respectively. For the same molecule, the “NSA-16 total score, change from Baseline to Week 26” value in series [3] (all pimavanserin doses (10-34 mg daily), added to background antipsychotic) is given as −10.4; in series [3] (patients who received the 34 mg fixed dose after week 8 (n=107)), −11.6. Also, the “Personal and Social Performance Scale, change from Baseline to Week 26” value in series [3] (key secondary endpoint, placebo 8.1) came out at 8.1. The “Restoration of SI deficit in scPCP-treated mice” value in series [4] is reported as “did not restore SI deficit”.
